Results reported in PMC10492782, “Exploiting the aggregation propensity of beta-lactamases to design inhibitors that induce enzyme misfolding” (Nature Communications, 2023).
Where two headings read alike, the source gives them in different places.

Tests used:
Format in all cases: cell-based, Escherichia coli
E. coli TEM-30 = conditions: for Interoretation: E. coli TEM-30; for Interpretation: VITEK 2 AST card
Description: (§1) Beta-lactamase clinical samples were collected from University Hospitals Leuven and tested for ESBL production using the disk diffusion method. The beta-lactamase reference isolates were purchased from International Health Management Associates (IHMA). Bacterial strains were cultivated in Mueller–Hinton Broth (MHB, Difco) at 37 °C. Whenever required, growth media were supplemented with appropriate antibiotics to the medium or plates (kanamycin 30 µg/mL, L-arabinose 0.5 mg/mL, and IPTG […]). Escherichia coli BL21 (ThermoFisher Scientific, Belgium) was used for cloning and plasmid amplification. For the selection of antibiotic resistant colonies, E. coli carrying plasmids was grown in LB agar plates supplemented with the relevant antibiotic. Bacterial CFU counting was done on blood agar plates (BD Biosciences, Belgium) or MHA agar plates. Species identification and antibiograms for all clinical isolates were performed using MALDI-Tof and VITEK® 2 automated system (BioMérieux, France).
(§2) Khodaparast et al Supplementary data
(§3) study. […] Abbreviations: S,
(§4) susceptible; I, intermediate; R, resistant.

E. coli NDM5b = experiment: VITEK 2 AST antimicrobial susceptibility testing; conditions: for Interoretation: E. coli NDM5b; for Interpretation: VITEK 2 AST card
Description: as §1, §2, §3, §4

E. coli TEM-104 = experiment: VITEK 2 AST antimicrobial susceptibility testing; conditions: for Interoretation: E. coli TEM-104; for Interpretation: VITEK 2 AST card
Description: as §1, §2, §3, §4

E. coli SHV1 (APHA) = experiment: VITEK 2 AST antimicrobial susceptibility testing; conditions: for Interoretation: E. coli SHV154; for Interpretation: VITEK 2 AST card
Description: as §1, §2, §3, §4

E. coli NDM5a = experiment: VITEK 2 AST antimicrobial susceptibility testing; conditions: for Interoretation: E. coli NDM5a; for Interpretation: VITEK 2 AST card
Description: as §1, §2, §3, §4

E. coli TEM-16 = experiment: VITEK 2 AST antimicrobial susceptibility testing; conditions: for Interoretation: E. coli TEM-16; for Interpretation: VITEK 2 AST card
Description: as §1, §2, §3, §4

E. coli TEM-148 = experiment: VITEK 2 AST antimicrobial susceptibility testing; conditions: for Interoretation: E. coli TEM-148; for Interpretation: VITEK 2 AST card
Description: as §1, §2, §3, §4

E. coli TEM-206 = experiment: VITEK 2 AST antimicrobial susceptibility testing; conditions: for Interoretation: E. coli TEM-206; for Interpretation: VITEK 2 AST card
Description: as §1, §2, §3, §4

E. coli = conditions: E.coli TEM104, Suppl. Figure 5
Description: For the analysis of synergy between the peptides and other antibiotics, a checkerboard assay was performed. Based on the MICs of the selected peptides, a checkerboard assay was designed to define their FICIs (Fractional Inhibitory Concentration Index) in combinations against different clinical isolates[53],[54]. Briefly, a total volume of 100 μL of Mueller–Hinton broth was distributed into each well of the 96-well plates. The first compound (peptide) of the combination was serially diluted vertically (128, 64, 32, 16, 8, 4, 2, 0 μg/mL) while the other drug (Beta-lactam or Kanamycin) was diluted horizontally in a 96-well plate (from 3200 to 3 μg/ mL). The total volume of each microtiter well was inoculated with 100 μL of MHB containing 1 × 10^6 CFU/mL bacteria. The plates were incubated at 37 °C for 24 h under aerobic conditions without shaking. Calculation of the FICI is used to analyze the results of the checkerboard assay by estimating the degree of synergistic effect. FICI is calculated as the sum of the individual fractional inhibitory concentrations (FICs) for each drug (where MIC A and MIC B denote the MIC of each drug alone, and MIC AA+B and MIC BA+B denote the concentrations of A and B in the drug combination). FICI = (MIC AA+B/MIC A) + (MIC BA+B/MIC B). With FICI ≤ 0.5, the combination of antibiotics is considered as a synergistic effect, 0.5 < FICI ≤ 1 indicates additivity, FICI > 1 indicates indifference. […]
Supplementary Figure 5: Fraction Inhibitory Concentration Index (FICI) values obtained from checkerboard assays between control peptides 1-4 and penicillin G. The peptide sequences were obtained by introducing proline mutations in TEM3.2 as follows: Pro1 […]
([…]), Pro2 ([…]), Pro3
([…]) and Pro4 ([…]). Each of the five dots […]
per condition indicates an independent experiment of the measurement consisting of 96 datapoints. FICI values below 0.5 indicate synergy (shaded in green). Values between 0.5 and 1.0 indicate additivity (shaded in yellow) and values greater than 1 indicate indifference (shaded in red) between the combined substances. […]

NC[C@H]1O[C@H](O[C@H]2[C@H](O)[C@@H](O[C@H]3O[C@H](CO)[C@@H](O)[C@H](N)[C@H]3O)[C@H](N)C[C@@H]2N)[C@H](N)C[C@@H]1O [Tobramycin]
Interoretation (E. coli TEM-30): *R
Interpretation (E. coli TEM-30): *R
Interoretation (E. coli NDM5b): S
Interpretation (E. coli NDM5b): S
Interoretation (E. coli TEM-104): S
Interpretation (E. coli TEM-104): S
Interoretation (E. coli SHV1 (APHA)): *R
Interpretation (E. coli SHV1 (APHA)): *R
Interoretation (E. coli NDM5a): R
Interpretation (E. coli NDM5a): R
Interoretation (E. coli TEM-16): S
Interpretation (E. coli TEM-16): S
Interoretation (E. coli TEM-148): S
Interpretation (E. coli TEM-148): S
Interoretation (E. coli TEM-206): S

Ac-RLPPFLHNRRPRLPPFLRQRR-NH2 [Pro2]
FICi values (E. coli; Replicate1): 0.75
FICi values (E. coli; Replicate2): 0.625
FICi values (E. coli; Replicate3): 0.67
FICi values (E. coli; Replicate4): 0.71

Ac-RLTPFPHNRRPRLTPFPRQRR-NH2 [Pro4]
FICi values (E. coli; Replicate1): 2
FICi values (E. coli; Replicate2): 2
FICi values (E. coli; Replicate3): 2
FICi values (E. coli; Replicate4): 2

Ac-RPTAPLHNRRPRPTAPLRQRR-NH2 [Pro1]
FICi values (E. coli; Replicate1): 2
FICi values (E. coli; Replicate2): 2
FICi values (E. coli; Replicate3): 2
FICi values (E. coli; Replicate4): 2

Amoxicillin + clavulanic acid
Interoretation (E. coli TEM-30): *R
Interpretation (E. coli TEM-30): *R
Interoretation (E. coli NDM5b): R
Interpretation (E. coli NDM5b): R
Interoretation (E. coli TEM-104): R
Interpretation (E. coli TEM-104): R
Interoretation (E. coli SHV1 (APHA)): R
Interpretation (E. coli SHV1 (APHA)): R
Interoretation (E. coli NDM5a): R
Interpretation (E. coli NDM5a): R
Interoretation (E. coli TEM-16): *R
Interpretation (E. coli TEM-16): *R
Interoretation (E. coli TEM-148): *R
Interpretation (E. coli TEM-148): *R
Interoretation (E. coli TEM-206): *R
Interpretation (E. coli TEM-206): *R

Colistin
Interoretation (E. coli TEM-30): S
Interpretation (E. coli TEM-30): S
Interoretation (E. coli NDM5b): S
Interpretation (E. coli NDM5b): S
Interoretation (E. coli TEM-104): S
Interpretation (E. coli TEM-104): S
Interoretation (E. coli SHV1 (APHA)): S
Interpretation (E. coli SHV1 (APHA)): S
Interoretation (E. coli NDM5a): S
Interpretation (E. coli NDM5a): S
Interoretation (E. coli TEM-16): S
Interpretation (E. coli TEM-16): S
Interoretation (E. coli TEM-148): S
Interpretation (E. coli TEM-148): S
Interoretation (E. coli TEM-206): S
Interpretation (E. coli TEM-206): S

Piperacillin / tazobactam
Interoretation (E. coli TEM-30): *R
Interpretation (E. coli TEM-30): *R
Interoretation (E. coli NDM5b): R
Interpretation (E. coli NDM5b): R
Interoretation (E. coli TEM-104): *I
Interpretation (E. coli TEM-104): *I
Interoretation (E. coli SHV1 (APHA)): R
Interpretation (E. coli SHV1 (APHA)): R
Interoretation (E. coli NDM5a): R
Interpretation (E. coli NDM5a): R
Interoretation (E. coli TEM-16): *R
Interpretation (E. coli TEM-16): *R
Interoretation (E. coli TEM-148): *R
Interpretation (E. coli TEM-148): *R
Interoretation (E. coli TEM-206): *R
Interpretation (E. coli TEM-206): *R

Trimethoprim/sulfamethoxazole
Interoretation (E. coli TEM-30): S
Interpretation (E. coli TEM-30): S
Interoretation (E. coli NDM5b): R
Interpretation (E. coli NDM5b): R
Interoretation (E. coli TEM-104): S
Interpretation (E. coli TEM-104): S
Interoretation (E. coli SHV1 (APHA)): R
Interpretation (E. coli SHV1 (APHA)): R
Interoretation (E. coli NDM5a): S
Interpretation (E. coli NDM5a): S
Interoretation (E. coli TEM-16): S
Interpretation (E. coli TEM-16): S
Interoretation (E. coli TEM-148): R
Interpretation (E. coli TEM-148): R
Interoretation (E. coli TEM-206): R
Interpretation (E. coli TEM-206): R
